Measurements from patent publication EP0414895A1, “OROTATE OF $g(a)-AMINO-$g(b)-PHENYL-BUTYRIC ACID” (NAUCHNO-PROIZVODSTVENNOE OBIEDINENIE "BIOLAR", priority 1989, dated 1990).
Where a name gives a salt, the structure may show the parent alone.

How the values were obtained:
[1] = test system: Mäuse; assay: Thresholds of emotional reactivity and aggressiveness on electric pain stimulation, mice; type: in vivo
Text: Es wurde auch die emotionelle Aktivität und Aggressivität der Tiere auf dem Wege der elektrischen Schmerzreizung untersucht.
In einer Kammer von 20 x 20 x 25 cm Ausmass, deren Boden - ein Metallgitter aus Stangen darstellt, wurde ein Paar Tiere untergebracht (männliche Mäuse) und es wurde der Wechselstrom durchgelassen. Die Spannung wurde dosenartig auf 5 V solange erhöht, bis der Strom das Piepsen (die Schwelle der emotionellen Reaktivität) und die Schlägerei der Tiere (die Schwelle der Aggressivität) auslöste. Jede Spannungsgrösse wurde innerhalb von 5 sec zweimal in einem Zeitabstand von 20 bis 50 Sekunden aufrechterhalten. Die Kontrolle des Benehmens der Tiere begann man I0 Minuten nach der Einführung der oben erwähnten Verbindungen. Die Angaben sind in Tabellen 3, 4 angeführt.

[2] = test system: Mäuse; assay: Conflict situation (punished water intake); type: in vivo; settings: 45 to 120 min before test
Text: Es wurde auch die Wirkung der erfindungsgemässen Verbindung unter Bedingungen einer Konfliktsituation an männlichen Mäusen (Gruppe aus I0 Mäusen) untersucht. Vorläufig wurde den Mäusen das Wasser für 48 Stunden entzogen, danach wurden ihnen 45 bis I20 Minuten vor dem Versuch die Verbindungen intraperitoneal eingeführt und die Tiere wurden in der Kammer untergebracht, wo sich eine Wassertränke befand. Im Augenblick der Wassereinnahme bekam es einen elektrischen Schlag, der am Zähler registriert wurde. In der Prüfkammer befand sich das Tier innerhalb von 3 Minuten. Für diese Zeit wurden die Zahl der Wassereinnahmen sowie die Lazenzperiode - die Zeit zwischen dem Unterbringen des Tiers in der Kammer und der ersten Wassereinnahme - registriert. Die durchschnittlichen Angaben sind in der Tabelle 5 angeführt.

[3] = test system: Mäuse; assay: Swimming test at 40°C; type: in vivo; settings: for Schwimmzeit: 40°C
Text: (§1) Der Einfluss der beanspruchten Verbindung auf die physische Toleranz der Tiere wurde nach dem Schwimmtest der Mäuse und Ratten untersucht. Die Versuche wurden in einer Wanne von […] Fläche durchgeführt. Die Tiergruppe (8 bis I0 Mäuse oder Ratten) wurde ins Wasser gebracht und es wurde die Zeit der Schwimmfähigkeit bestimmt. Die neue Verbindung und γ -Amino- β - -phenylbuttersäurehydrochlorid wurden enteral und intraperitoneal I Stunde oder 3 Stunden vor dem Schwimmbeginn eingeführt. Die Untersuchung wurde sowohl nach der einmaligen als auch nach der chronischen (innerhalb von 20 Tagen einmal täglich) Einführung der genannten Verbindungen durchgeführt. Die Versuche wurden bei 3 Temperaturen angestellt: 2°C (Tabelle I7), 25°C (Tabelle I8) und 40°C (Tabelle I9).

[4] = test system: Mäuse; assay: Kalziumchlorid arrhythmia model, LD50 of Kalziumchlorid; type: in vivo; settings: Kalziumchlorid i.v. combined with compound 50 mg/kg
Description: Die antiarrhythmischen Eigenschaften der erfindungsgemässen Verbindung wurden auch am Modell der Kalziumchloridarrhythmie untersucht. Der Mäusengruppe (I0 Gruppe) wurde einmalig die Kalziumchloridlösung intravenös im einzelnen und in Kombination mit γ -Amino-β -phenylbuttersäurehydrochlorid eingeführt. Die Dosis der letzteren betrug 50 mg/kg. Es wurde LD₅₀ für Kalziumchlorid bestimmt.

[5] = test system: Mäuse; assay: Anticonvulsant effect against Pikrotoxin, Bicucullin, Korazol, Thiosemikarbazid; type: in vivo
Text: Ausserdem wurde die krampflösende Wirkung der neuen Verbindung untersucht. Die Untersuchung wurde an männlichen weissen Mäusen bei der Einführung von Pikrotoxin, Bicucullin, Korazol, Thiosemikarbazid durchgeführt.

[6] = test system: Ratten; assay: Habituation study over 6 months: motor activity of rats in actometer; type: in vivo
Text: Das Ausbleiben der Gewöhnung an die beanspruchte Verbindung wurde auch in den Rattenversuchen festgestellt, die im Laufe von 6 Monaten zur Bestimmung der motorischen Aktivität der Ratten durchgeführt wurden.

[7] = test system: Mäuse; assay: Hypoxia in barochamber (11000 m), survival; type: in vivo
Description: Nach einer der Methoden wurden die Mäuse in der Barokammer untergebracht, die für die Höhe von II000 m über dem Meeresspiegel gehoben wurde. Die Hebung wurde mit einer Geschwindigkeit von 50 m/s verwirklicht. Der atmosphärische Tiefdruck wurde mit Hilfe der elektrischen Vakuumpumpe geschaffen.
Die beanspruchte Verbindung, Natriumoxybutyrat und Pyrazetam wurden 60 min vor dem Versuch enteral eingeführt. Der Schutzeffekt wurde nach der Überlebensdauer eingeschätzt. Die Angaben sind in Tabelle I0 angeführt.

[8] = test system: Ratten; assay: Swimming test at 25°C; type: in vivo; settings: 50,0 mg/kg
Text: as §1

[9] = test system: Mäuse; assay: Ethanol intoxication, survival; type: in vivo
Text: Es wurde auch der Einfluss der erfindungsgemässen Verbindung auf die durch Athanol erzeugte Intoxikation untersucht. In den Versuchen an Mäusen (in jedem Versuch wurde eine Gruppe von I0 Tieren untersucht) wurde die Überlebensdauer der Tiere bestimmt. […] Athanol wurde I Stunde nach der Einführung der neuen Verbindung verabreicht. Die Ergebnisse dieser Untersuchung sind in der Tabelle 2 dargestellt.

[10] = test system: Mäuse; assay: Acute toxicity, mice; type: in vivo
Description: (§2) Die akute Toxizität der beanspruchten Verbindung wurde an Mäusen und Ratten (die Gruppe aus 9 bis I2 Tieren) bei der intravenösen, intraperitonealen Einführung der beanspruchten Verbindung sowie bei deren Einführung in den Magen bestimmt.
(§3) Es wurden der letale Ausgang, der Allgemeinzustand, die Vergiftungssymptome registriert. LD₅₀ wurde nach der Methode von Lichtfield und Wilcoxon bestimmt. LD₅₀ der neuen Verbindung beträgt für Mäuse bei der intravenösen Einführung 580 mg/kg, bei der intraperitonealen Einführung I450 mg/kg, bei der Einführung in den Magen 4600 mg/kg; für Ratten bei der intraperitonealen Einführung beträgt LD₅₀ 883 mg/kg, bei der Einführung in den Magen - über I500 mg/kg.

[11] = test system: Ratten; assay: Acute toxicity, rats; type: in vivo; settings: intraperitoneal
Description: as §2, §3

[12] = Solubility (description of the substance); type: physicochemical
[13] = Storage stability (description of the substance); type: physicochemical
[14] = male white mice, convulsants Pikrotoxin, Bicucullin, Korazol, Thiosemikarbazid

NCC(CC(=O)O)c1ccccc1 (stereo not drawn) [γ-Amino-β-phenylbutter-säurehydrochlorid, γ -Amino- β -phenylbuttersäurehydrochlorid, reference compound]
Spannung in V, Schwelle der emotionellen Reaktivität ([1]; 100 mg/kg): 24,2±0,8 V
Latenzperiode ([2]; 16 mg/kg i.p.): 36,4±6,8 sec
Schwimmzeit ([3]; 35 mg/kg chronic, 20 days): 58±7,2 min
Schwimmzeit ([3]; 35 mg/kg single): 37,8±8 min
Einfluss auf LD₅₀ von Kalziumchlorid [4]: keinen Einfluss

γ -Amino- β -phenylbuttersäureorotat [Erfindungsgemässe Verbindung]
Spannung in V, Schwelle der Agressivität ([1]; 37 mg/kg): 29,8±2,4 V
Anzahl der Wassereinnahmen für 3 Minuten ([2]; 25 mg/kg i.p.): 5,6±0,7
Latenzperiode ([2]; 25 mg/kg i.p.): 52,4±20 sec
krampflösende Wirksamkeit ([5]; Dosen von 50 bis 200 mg/kg): keine ausgeprägte krampflösende Wirksamkeit
Anteil von Tieren, bei denen der Krampf beobachtet wurde [5, 14]: verringert nicht
Krampflatenzzeit [5, 14]: verlängert sicher
Zahl der Impulse im Aktometer innerhalb von 30 min ([6]; day 1, 25 mg/kg): 183±24
Zahl der Impulse im Aktometer innerhalb von 30 min ([6]; day 1, 75 mg/kg): 111±13
Zahl der Impulse im Aktometer innerhalb von 30 min ([6]; day 1, 200 mg/kg): 15±16
Zahl der Impulse im Aktometer innerhalb von 30 min ([6]; day 35, 25 mg/kg): 171±18
Zahl der Impulse im Aktometer innerhalb von 30 min ([6]; day 35, 75 mg/kg): 129±14
Zahl der Impulse im Aktometer innerhalb von 30 min ([6]; day 35, 200 mg/kg): 64±18
Zahl der Impulse im Aktometer innerhalb von 30 min ([6]; day 70, 25 mg/kg): 126±27
Zahl der Impulse im Aktometer innerhalb von 30 min ([6]; day 70, 75 mg/kg): 81±13
Zahl der Impulse im Aktometer innerhalb von 30 min ([6]; day 70, 200 mg/kg): 43±15
Zahl der Impulse im Aktometer innerhalb von 30 min ([6]; day 85, 25 mg/kg): 147±19
Zahl der Impulse im Aktometer innerhalb von 30 min ([6]; day 85, 75 mg/kg): 109±17
Zahl der Impulse im Aktometer innerhalb von 30 min ([6]; day 85, 200 mg/kg): 67±21
Zahl der Impulse im Aktometer innerhalb von 30 min ([6]; day 107, 25 mg/kg): 138±20
Zahl der Impulse im Aktometer innerhalb von 30 min ([6]; day 107, 75 mg/kg): 137±14
Zahl der Impulse im Aktometer innerhalb von 30 min ([6]; day 107, 200 mg/kg): 79±17
Zahl der Impulse im Aktometer innerhalb von 30 min ([6]; day 120, 25 mg/kg): 145±23
Zahl der Impulse im Aktometer innerhalb von 30 min ([6]; day 120, 75 mg/kg): 118±28
Zahl der Impulse im Aktometer innerhalb von 30 min ([6]; day 120, 200 mg/kg): 71±13
Zahl der Impulse im Aktometer innerhalb von 30 min ([6]; day 138, 25 mg/kg): 168±32
Zahl der Impulse im Aktometer innerhalb von 30 min ([6]; day 138, 75 mg/kg): 169±31
Zahl der Impulse im Aktometer innerhalb von 30 min ([6]; day 138, 200 mg/kg): 103±13
Zahl der Impulse im Aktometer innerhalb von 30 min ([6]; day 154, 25 mg/kg): 127±17
Zahl der Impulse im Aktometer innerhalb von 30 min ([6]; day 154, 75 mg/kg): 181±31
Zahl der Impulse im Aktometer innerhalb von 30 min ([6]; day 154, 200 mg/kg): 85±24
Zahl der Impulse im Aktometer innerhalb von 30 min ([6]; day 180, 25 mg/kg): 154±30
Zahl der Impulse im Aktometer innerhalb von 30 min ([6]; day 180, 75 mg/kg): 148±13
Zahl der Impulse im Aktometer innerhalb von 30 min ([6]; day 180, 200 mg/kg): 117±18
Überlebensdauer ([7]; 50,0 mg/kg enteral 60 min before): 6,2±1,4 min
Überlebensdauer ([7]; 100,0 mg/kg enteral 60 min before): 7,5±2,1 min
Überlebensdauer ([7]; 200,0 mg/kg enteral 60 min before): 15,2±1,8 min
Schwimmzeit, Ratten [8]: 8,2±0,5
Schwimmzeit ([3]; 50 mg/kg single): 57,6±5,6 min
Schwimmdauer grösser um das ...fache bei einer Temperatur von 40°C ([3]; after 20 days chronic administration, Tabelle I9, compared with γ-Amino-β-phenylbuttersäurehydrochlorid as worded): 2,5 fache
Überlebensdauer nach der Einführung von Äthanol ([9]; 50 mg/kg enteral chronic, 14 days + Äthylalkohol 11 ml/kg): 283,8±16 sec
Überlebensdauer nach der Einführung von Äthanol ([9]; 50 mg/kg single + Äthylalkohol 11 ml/kg): 213,6±8 sec
Verlängerung der Überlebensdauer der Tiere ([9]; chronic administration, ethanol intoxication): 30%
LD₅₀ ([10]; into the stomach): 4600 mg/kg
LD₅₀ ([10]; intravenous): 580 mg/kg
LD₅₀ [11]: 883 mg/kg
Löslichkeit in wässrigen Alkalilösungen ([12]; aqueous alkali solutions): löslich
Wasserlöslichkeit ([12]; water): schwer wasserlöslich
Beständigkeit bei der Aufbewahrung [13]: beständig
